Values belong to the compound of their own block, whether it stands above or below them.
Key:
[1] = cited from earlier work; for Oral absorption: in vivo
[2] = Stability of stock solutions; type: physicochemical; conditions: DMSO stock solution, stock solution 0.40 mg/mL, n = 6, read-out: Remaining (%, Mean ± SD)
Method: Stock solutions of ISO and trans-stilbene (internal standard, IS) were prepared in DMSO at a final concentration of 1 mg/mL. These solutions were stored at −20 °C and protected from light. The calibration standard and quality control (QC) samples were prepared by serial dilution of the ISO stock solution with pooled blank murine plasma or respective tissue homogenate.
The stability of ISO was evaluated under various storage conditions. Stock solution stability was assessed after storage at room temperature (25 °C) and –20 °C. The stability of ISO in plasma was examined under the following conditions: short-term storage (25 °C for 24 h), long-term storage (–80 °C for 52 days), three freeze–thaw cycles, and post-preparative stability (samples kept in an autosampler at 4 °C for more than 24 h). As it is difficult to evaluate ISO stability directly in tissues, only the short-term stability in tissue homogenates was assessed (6 h on ice). Similarly, post-preparative stability in processed tissue samples was assessed using liver homogenate as a representative, due to the complexity of the hepatic matrix. Stability was considered acceptable if 85–115% of the initial ISO concentration remained.

[3] = enzymatic-hydrolysis approach; cited from earlier work

Structure (SMILES): COc1cc(/C=C/c2ccc(O)cc2)cc(OC)c1 [pterostilbene]
Brain bioavailability ([1]; compared with ISO's limited brain penetration after oral administration): significantly improved brain bioavailability

remaining at 24 h, 0.4 mg/mL ([2]; stored at room temperature for 24 h): 94.7 ± 0.3% | remaining at 480 h, 0.4 mg/mL ([2]; stored at −20 °C for 20 days): 105.3 ± 0.7%
Structure (SMILES): C(=C\c1ccccc1)/c1ccccc1 [Internal standard, trans-stilbene, reference compound]

Structure (SMILES): Oc1cc(O)cc(/C=C/c2ccc(O)cc2O)c1 [oxyresveratrol]
Oral absorption [1]: rapid oral absorption

Structure (SMILES): Oc1cc(O)cc(/C=C/c2ccc(O)c(O)c2)c1 [piceatannol, reference compound]
Sulfation [3]: extensive sulfation | Oral absorption [1]: rapid oral absorption

From article PMC12430278, “A Simple and Reliable Method for the Determination of Isorhapontigenin in Murine Biological Matrices: Application in a Tissue Distribution Study” (Molecules, 2025)
